Here are results for 34 molecules from patent US11365192B2, “Pyridine compound substituted with azole” (TAISHO PHARMACEUTICAL CO., LTD., priority 2017, dated 2022).

One assay has as its target human CYP4F2 (Homo sapiens (Human), UniProt P78329). As to the kind of experiment: Inhibition test against 20-HETE producing enzyme CYP4F2 (luciferine derivative, luminescence). The class given is biochemical. Summed up:
(§1)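 IC50 derived from luminescence after 60 min at room temperature with membrane fractions of E. coli expressing each human CYP (100 μg/mL protein). For CYP4A11, 60 μM luciferin derivative in 100 mM Tris-HCl pH 7.5 with NADPH-regenerating system; for CYP4F2, 2.5 μM substrate, 1 mM NADPH, 50 mM KPO4 pH 7.4.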

Another assay concerns the target human CYP4A11 (Homo sapiens (Human), UniProt Q02928). As to the kind of experiment: Inhibition test against 20-HETE producing enzyme CYP4A11 (luciferine derivative, luminescence). The class given is biochemical. In short, it runs like this:
as §1

[1] abbreviates: E. coli membrane fraction expressing human CYP4F2, 2.5 μM luciferine derivative, room temperature 60 minutes.
Where [2] appears, read: E. coli membrane fraction expressing human CYP4A11, 60 μM luciferine derivative, room temperature 60 minutes.
[3] abbreviates: human CYP4F2, luciferine derivative, luminescence.
The mark [4] stands for this setting: human CYP4A11, luciferine derivative, luminescence.

Molecules are shown by their SMILES.

For orientation: IC50 means the concentration that inhibits the measured activity by half. A higher IC50 goes with weaker potency in that assay.

human CYP4F2, sequence (P78329 5-520): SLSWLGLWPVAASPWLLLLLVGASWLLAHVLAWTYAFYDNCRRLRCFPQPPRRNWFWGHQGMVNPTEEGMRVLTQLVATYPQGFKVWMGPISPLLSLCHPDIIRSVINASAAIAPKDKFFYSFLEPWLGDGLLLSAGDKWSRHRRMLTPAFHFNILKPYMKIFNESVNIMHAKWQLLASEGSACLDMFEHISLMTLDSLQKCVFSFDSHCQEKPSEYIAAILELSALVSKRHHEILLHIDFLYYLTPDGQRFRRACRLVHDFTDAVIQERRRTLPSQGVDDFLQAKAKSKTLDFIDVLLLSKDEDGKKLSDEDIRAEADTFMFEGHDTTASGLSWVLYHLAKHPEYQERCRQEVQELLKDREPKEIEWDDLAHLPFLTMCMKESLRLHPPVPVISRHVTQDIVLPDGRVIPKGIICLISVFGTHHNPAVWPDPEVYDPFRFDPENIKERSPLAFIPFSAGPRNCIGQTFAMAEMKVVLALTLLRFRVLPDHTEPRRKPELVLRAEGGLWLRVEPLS
human CYP4A11, sequence (Q02928 5-519): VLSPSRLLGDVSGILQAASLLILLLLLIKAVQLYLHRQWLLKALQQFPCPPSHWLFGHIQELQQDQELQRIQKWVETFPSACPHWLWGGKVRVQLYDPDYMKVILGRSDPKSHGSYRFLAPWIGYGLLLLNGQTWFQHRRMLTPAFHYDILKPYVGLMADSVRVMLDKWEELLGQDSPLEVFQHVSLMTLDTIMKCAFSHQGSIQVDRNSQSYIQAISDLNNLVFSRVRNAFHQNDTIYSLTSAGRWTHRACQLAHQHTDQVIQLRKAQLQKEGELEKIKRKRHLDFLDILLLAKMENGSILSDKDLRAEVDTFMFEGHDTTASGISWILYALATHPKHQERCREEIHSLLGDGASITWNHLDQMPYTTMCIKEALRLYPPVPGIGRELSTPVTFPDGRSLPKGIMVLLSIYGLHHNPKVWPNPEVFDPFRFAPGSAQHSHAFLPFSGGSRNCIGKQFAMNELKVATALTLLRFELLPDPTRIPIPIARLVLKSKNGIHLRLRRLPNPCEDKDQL

As to `CC(C)S(=O)(=O)Nc1cccc(COc2ccc(-c3ccn[nH]3)nc2)c1` [Example 56-1, N-[3-[[6-(1H-Pyrazol-5-yl)-3-pyridinyl]oxymethyl]phenyl]-2-propanesulfonamide], the IC50 against human CYP4F2 (setting [1]) worked out at 450 nM; against human CYP4A11 (setting [2]), 140 nM.
On to `O=C(O)c1ccc(F)c(CCCOc2ccc(-c3ccn[nH]3)nc2)c1` [Example 71-13], for which the concentration for half-maximal inhibition (IC50) was found to be 770 nM at human CYP4F2 (setting [3]) and 51 nM on human CYP4A11 (setting [4]).
For the molecule `O=C(O)Cc1cccc(COc2ccc(-c3cn[nH]c3)nc2)c1` [Example 38-2, 2-[3-[[6-(1H-Pyrazol-4-yl)-3-pyridinyl]oxymethyl]phenyl]acetic Acid], the IC50 against human CYP4F2 (setting [1]) stood at 19000 nM; against human CYP4A11 (setting [2]), 11 nM.
Take `O=C(O)C12CCC(C(=O)N3CCC[C@@H](COc4ccc(-c5ccn[nH]5)nc4)C3)(CC1)CC2` [Example 46-4]: the IC50 against human CYP4F2 (setting [1]) is 18000 nM; at human CYP4A11 (setting [2]) it was 1000 nM.
For the molecule `O=C(O)c1cccc(CCOc2ccc(-c3ccn[nH]3)nc2)c1` [Example 1-6], the half-maximal inhibitory concentration (IC50) at human CYP4F2 (setting [1]) is 2300 nM; on human CYP4A11 (setting [2]), 340 nM.
On to `CC(C)(C(=O)O)n1cc(CCCCOc2ccc(-c3ccn[nH]3)nc2)nn1` [Example 35-3], for which the IC50 is 7400 nM against human CYP4F2 (setting [1]) and 290 nM on human CYP4A11 (setting [2]).
Take `O=C(O)c1cncc(-c2cccc(COc3ccc(-c4ccn[nH]4)nc3)c2)n1` [Example 18-3]: the IC50 at human CYP4F2 (setting [1]) stood at 510 nM; against human CYP4A11 (setting [2]), 24 nM.
Turning to `O=C(NCC1(C(=O)O)CCCC1)c1cccc(COc2ccc(-c3ccn[nH]3)nc2)c1` [Example 45-5], the IC50 at human CYP4F2 (setting [3]) was 750 nM; against human CYP4A11 (setting [4]), 74 nM.
For `O=C(O)c1ccnc(CCCOc2ccc(-c3ccn[nH]3)nc2)c1` [Example 29-2, 2-[3-[[6-(1H-Pyrazol-5-yl)-3-pyridinyl]oxy]propyl]-4-pyridinecarboxylic Acid], the 50% inhibitory concentration (IC50) at human CYP4F2 (setting [1]) amounted to 2700 nM; against human CYP4A11 (setting [2]), 1300 nM.
`NS(=O)(=O)c1cccc(C(=O)N2CCC[C@@H](COc3ccc(-c4ccn[nH]4)nc3)C2)c1` [Example 41-1, 3-[Oxo-[(3R)-3-[[6-(1H-pyrazol-5-yl)-3-pyridinyl]oxymethyl]-1-piperidinyl]methyl]benzenesulfonamide]: the IC50 at human CYP4F2 (setting [1]) came to 590 nM; against human CYP4A11 (setting [2]), 250 nM.
On to `O=C(O)[C@H]1CC[C@H](c2cccc(COc3ccc(-c4ccn[nH]4)nc3)c2)CC1` [Example 8-2, trans-4-[3-[[6-(1H-Pyrazol-5-yl)-3-pyridinyl]oxymethyl]phenyl]-1-cyclohexanecarboxylic Acid], for which the IC50 was determined as 6500 nM at human CYP4F2 (setting [1]) and 19 nM against human CYP4A11 (setting [2]).
As for `O=C(O)[C@H]1C[C@](O)(c2cccc(COc3ccc(-c4ccn[nH]4)nc3)c2)C1` [Example 28-1, 3-Hydroxy-3-[3-[[6-(1-H-pyrazol-5-yl)-3-pyridinyl]oxymethyl]phenyl]-1-cyclobutanecarboxylic Acid], the results for the half-inhibitory concentration (IC50) against human CYP4F2 (setting [1]) and against human CYP4A11 (setting [2]) were 470 nM and 61 nM, respectively.
Taken in the same sequence, the figures for `O=C(O)C12CCC(CCCOc3ccc(-c4ccn[nH]4)nc3)(CC1)CC2` [Example 1-30] were 4100 nM and 34 nM.
In the case of `CC[C@@H](OCCCCCCCOc1ccc(-c2ccn[nH]2)nc1)C(=O)O` [Example 71-2-1], the IC50 was found to be 300 nM against human CYP4F2 (setting [3]) and 170 nM against human CYP4A11 (setting [4]).
Consider `CS(=O)(=O)NC(=O)CCc1cccc(COc2ccc(-c3ccn[nH]3)nc2)c1` [Example 44-5], for which the values for the half-inhibitory concentration (IC50) against human CYP4F2 (setting [3]) and against human CYP4A11 (setting [4]) were 2700 nM and 31 nM, respectively.
With `O=C(O)Cc1ccc(CCOc2ccc(-c3ccn[nH]3)nc2)cc1` [Example 1-13], the half-inhibitory concentration (IC50) was determined as 2700 nM against human CYP4F2 (setting [1]) and 31 nM against human CYP4A11 (setting [2]).
Taken in the same sequence, the figures for `O=C(O)CCCc1cccc(COc2ccc(-c3ccn[nH]3)nc2)c1` [Example 30-1, 4-[3-[[6-(1H-Pyrazol-5-yl)-3-pyridinyl]oxymethyl]phenyl]butanoic Acid] were 1400 nM and 17 nM.
With `OCc1cccc(COc2ccc(-c3ccn[nH]3)nc2)c1` [Example 23-5], the IC50 against human CYP4F2 (setting [1]) stood at 130 nM; at human CYP4A11 (setting [2]), 480 nM.
Taken in the same sequence, the figures for `CC(C)(OCCCCOCCCCOc1ccc(-c2ccn[nH]2)nc1)C(=O)O` [Example 9-2] were 1100 nM and 1800 nM.
For the molecule `CC(C)(C(=O)O)c1cccc(COc2ccc(-c3ccn[nH]3)nc2)c1` [Example 24-2, Sodium 2-methyl-2-[3-[[6-(1H-pyrazol-5-yl)-3-pyridinyl]oxymethyl]phenyl]propanoate], the IC50 is 3500 nM against human CYP4F2 (setting [1]) and 16 nM at human CYP4A11 (setting [2]).
`O=C(O)C1CC1c1ccc(CCOc2ccc(-c3ccn[nH]3)nc2)cc1F` (centres unmarked) [Example 70-8]: the IC50 against human CYP4F2 (setting [3]) turned out to be 120 nM; against human CYP4A11 (setting [4]), 130 nM.
In the case of `CC(C)(C(=O)O)c1cccc(S(=O)(=O)CCCCOc2ccc(-c3ccn[nH]3)nc2)c1` [Example 8-5], the IC50 at human CYP4F2 (setting [1]) was found to be 2300 nM; against human CYP4A11 (setting [2]) it was 560 nM.
Consider `O=C(O)c1cc(COc2ccc(-c3ccn[nH]3)nc2)ccn1` [Example 1-40, 4-[[6-(1H-Pyrazol-5-yl)-3-pyridinyl]oxymethyl]-2-pyridinecarboxylic Acid], for which the concentration for half-maximal inhibition (IC50) came to 15000 nM on human CYP4F2 (setting [1]) and 580 nM against human CYP4A11 (setting [2]).
Taken in the same sequence, the figures for `O=C(CCc1cccc(COc2ccc(-c3ccn[nH]3)nc2)c1)N1CCC1` [Example 42-12] were 42 nM and 44 nM.
`CNC(=O)C(C)(C)c1cccc(COc2ccc(-c3ccn[nH]3)nc2)c1` [Example 42-24]: the results for the IC50 against human CYP4F2 (setting [3]) and on human CYP4A11 (setting [4]) were 150 nM and 39 nM, respectively.
On to `CC(C)(OCCCCCCCOc1ccc(-c2cnco2)nc1)C(=O)O` [Example 76-1, 2-Methyl-2-[7-[6-(1,3-oxazol-5-yl)pyridin-3-yl]oxyheptoxy]propanoic Acid], for which the results for the IC50 on human CYP4F2 (setting [3]) and against human CYP4A11 (setting [4]) were 1500 nM and 740 nM, respectively.
With `Cc1ccc(COc2ccc(-c3ccn[nH]3)nc2)cc1O` [Example 12-1, 2-Methyl-5-[[6-(1H-pyrazol-5-yl)-3-pyridinyl]oxymethyl]phenol], the results for the IC50 against human CYP4F2 (setting [1]) and on human CYP4A11 (setting [2]) were 6.2 nM and 260 nM, respectively.
As to `O=C(O)c1ncc(CCCCOc2ccc(-c3ccn[nH]3)nc2)cn1` [Example 29-3], the results for the half-maximal inhibitory concentration (IC50) at human CYP4F2 (setting [1]) and on human CYP4A11 (setting [2]) were 84 nM and 380 nM, respectively.
In the case of `O=C(O)COCCCCCCCOc1ccc(-c2ccn[nH]2)nc1` [Example 71-3], the IC50 was 320 nM at human CYP4F2 (setting [3]) and 230 nM against human CYP4A11 (setting [4]).
As to `OC(c1ccc(COc2ccc(-c3ccn[nH]3)nc2)cc1)C(F)(F)F` (centres unmarked) [Example 59-3], the IC50 on human CYP4F2 (setting [1]) was 41 nM; against human CYP4A11 (setting [2]), 1500 nM.
For the molecule `O=C(O)C1CCc2ccc(CCOc3ccc(-c4ccn[nH]4)nc3)cc2O1` (centres unmarked) [Example 71-21, 7-[2-[6-(1H-Pyrazol-5-yl)pyridin-3-yl]oxyethyl]-3,4-dihydro-2H-chromene-2-carboxylic Acid], the IC50 amounted to 190 nM at human CYP4F2 (setting [3]) and 330 nM against human CYP4A11 (setting [4]).
For the molecule `O=C(O)C1(CCCCCCOc2ccc(-c3ccn[nH]3)nc2)CCCC1` [Example 1-46, 1-[6-[[6-(1H-Pyrazol-5-yl)-3-pyridinyl]oxy]hexyl]-1-cyclopentanecarboxylic Acid], the half-inhibitory concentration (IC50) against human CYP4F2 (setting [1]) worked out at 370 nM; on human CYP4A11 (setting [2]), 66 nM.
For the molecule `O=C(O)C12CC(COc3ccc(-c4ccn[nH]4)nc3)(C1)C2` [Example 8-17], the 50% inhibitory concentration (IC50) at human CYP4F2 (setting [1]) stood at 22000 nM; on human CYP4A11 (setting [2]), 520 nM.
In the case of `O=C(NCc1cc(O)no1)c1cccc(COc2ccc(-c3ccn[nH]3)nc2)c1` [Example 45-47], the IC50 was found to be 970 nM against human CYP4F2 (setting [1]) and 190 nM on human CYP4A11 (setting [2]).
